One block for each compound: values may come before it.
What was measured:
[1] = target: Protein kinase C delta type (Homo sapiens) (UniProt Q05655); test: Selectivity interaction (Millipore kinase profiler) EUB0000124b PRKCD; conditions: at 10 µM
[2] = target: TGF-beta receptor type-2 (Homo sapiens) (UniProt P37173); test: Selectivity interaction (KinomeScan (DiscoverX)) EUB0001049a TGFBR2; conditions: at 1 µM
[3] = target: T1, Serine/threonine-protein kinase MAK (Homo sapiens) (UniProt P20794); test: Selectivity interaction (Ambit KINOMEscan and KiNATiv profiling in Jurkat cells) EUB0000090b MAK; format: cell-based; conditions: at 1 µM
T1 sequence (whole entry): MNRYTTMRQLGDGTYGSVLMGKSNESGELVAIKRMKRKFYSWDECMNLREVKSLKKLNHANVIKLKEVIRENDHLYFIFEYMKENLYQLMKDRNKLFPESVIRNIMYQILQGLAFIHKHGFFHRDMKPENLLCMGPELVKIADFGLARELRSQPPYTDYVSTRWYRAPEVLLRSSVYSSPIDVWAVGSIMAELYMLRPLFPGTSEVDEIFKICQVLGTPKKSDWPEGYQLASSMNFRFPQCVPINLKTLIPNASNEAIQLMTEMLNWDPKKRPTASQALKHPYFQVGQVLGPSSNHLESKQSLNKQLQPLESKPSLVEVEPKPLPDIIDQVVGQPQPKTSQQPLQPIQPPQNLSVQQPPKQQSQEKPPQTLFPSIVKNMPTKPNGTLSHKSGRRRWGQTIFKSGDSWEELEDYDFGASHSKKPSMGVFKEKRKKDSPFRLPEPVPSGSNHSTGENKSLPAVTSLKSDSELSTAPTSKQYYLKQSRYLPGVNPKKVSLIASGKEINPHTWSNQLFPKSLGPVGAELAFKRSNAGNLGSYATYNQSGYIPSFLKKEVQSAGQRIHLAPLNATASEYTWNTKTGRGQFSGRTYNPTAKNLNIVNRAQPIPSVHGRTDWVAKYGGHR

[4] = target: Ribosomal protein S6 kinase alpha-3 (Homo sapiens, UniProt P51812); test: Selectivity interaction (ActivX KiNativ screen (kinase selectivity in THP-1 cell lysates)) EUB0000639a RPS6KA3; format: subcellular; conditions: lysate, at 0.04 µM
[5] = target: Mu-type opioid receptor (Homo sapiens, UniProt P35372); test: Selectivity interaction (Panel of non-epigenetic targets (kinases, GPCRs, ion channels, and transporters, Eurofins) ) EUB0000271b OPRM1; conditions: at 1 µM
[6] = target: LIM domain kinase 2 (Homo sapiens) (UniProt P53671); test: Selectivity interaction (KinomeScan (DiscoverX)) EUB0000092b LIMK2; conditions: at 10 µM
[7] = target: T2, Cyclin-dependent kinase 11A (Homo sapiens) (UniProt Q9UQ88); test: Selectivity interaction (ActivX KiNativ screen (ex vivo kinase selectivity in human PBMCs)) EUB0001619a CDK11A; format: cell-based; conditions: PBMC, at 1 µM
T2 sequence (whole entry): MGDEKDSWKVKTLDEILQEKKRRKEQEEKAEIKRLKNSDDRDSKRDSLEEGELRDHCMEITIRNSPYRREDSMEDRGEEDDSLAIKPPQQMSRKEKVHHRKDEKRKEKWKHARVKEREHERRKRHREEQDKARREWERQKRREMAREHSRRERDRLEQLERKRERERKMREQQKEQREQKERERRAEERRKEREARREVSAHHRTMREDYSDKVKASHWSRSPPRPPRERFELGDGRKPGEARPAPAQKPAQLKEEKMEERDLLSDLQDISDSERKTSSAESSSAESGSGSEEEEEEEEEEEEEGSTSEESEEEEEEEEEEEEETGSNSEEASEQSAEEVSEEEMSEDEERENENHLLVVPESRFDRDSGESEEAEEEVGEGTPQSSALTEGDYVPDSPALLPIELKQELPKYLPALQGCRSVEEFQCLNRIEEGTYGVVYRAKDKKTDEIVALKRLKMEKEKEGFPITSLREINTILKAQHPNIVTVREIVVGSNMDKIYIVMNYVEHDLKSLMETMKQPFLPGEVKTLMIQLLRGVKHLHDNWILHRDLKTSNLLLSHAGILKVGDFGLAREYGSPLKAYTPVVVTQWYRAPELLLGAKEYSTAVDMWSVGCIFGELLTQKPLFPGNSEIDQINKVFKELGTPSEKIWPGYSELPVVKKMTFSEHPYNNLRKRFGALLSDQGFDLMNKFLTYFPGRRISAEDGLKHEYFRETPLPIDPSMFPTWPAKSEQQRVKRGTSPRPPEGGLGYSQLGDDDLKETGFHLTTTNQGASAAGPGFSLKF

[8] = target: Mitogen-activated protein kinase 3 (Homo sapiens, UniProt P27361); test: Selectivity interaction (Kinase panel (KiNativ target engagement assay in Jurkat cells)) EUB0001635a MAPK3; format: cell-based; conditions: Selectivity number of off-targets 0.0, Selectivity number of targets 233.0, Source Knowledge https://www.sciencedirect.com/science/article/pii/S2451945619300674?via%3Dihub, at 1 µM
Chain of Mitogen-activated protein kinase 3 (P27361 whole entry): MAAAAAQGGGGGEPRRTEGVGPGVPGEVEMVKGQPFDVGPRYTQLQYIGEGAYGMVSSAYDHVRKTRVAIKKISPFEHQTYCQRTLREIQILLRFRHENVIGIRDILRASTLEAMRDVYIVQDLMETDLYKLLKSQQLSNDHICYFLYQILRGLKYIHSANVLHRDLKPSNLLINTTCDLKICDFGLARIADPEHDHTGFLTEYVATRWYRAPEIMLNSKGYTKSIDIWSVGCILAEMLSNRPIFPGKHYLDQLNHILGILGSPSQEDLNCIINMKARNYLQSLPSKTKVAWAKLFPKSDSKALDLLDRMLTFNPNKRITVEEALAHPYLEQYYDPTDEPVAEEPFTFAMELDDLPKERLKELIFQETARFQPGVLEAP

Chain of LIM domain kinase 2 (Homo sapiens) (P53671 whole entry, looked up, the tested form may be a part): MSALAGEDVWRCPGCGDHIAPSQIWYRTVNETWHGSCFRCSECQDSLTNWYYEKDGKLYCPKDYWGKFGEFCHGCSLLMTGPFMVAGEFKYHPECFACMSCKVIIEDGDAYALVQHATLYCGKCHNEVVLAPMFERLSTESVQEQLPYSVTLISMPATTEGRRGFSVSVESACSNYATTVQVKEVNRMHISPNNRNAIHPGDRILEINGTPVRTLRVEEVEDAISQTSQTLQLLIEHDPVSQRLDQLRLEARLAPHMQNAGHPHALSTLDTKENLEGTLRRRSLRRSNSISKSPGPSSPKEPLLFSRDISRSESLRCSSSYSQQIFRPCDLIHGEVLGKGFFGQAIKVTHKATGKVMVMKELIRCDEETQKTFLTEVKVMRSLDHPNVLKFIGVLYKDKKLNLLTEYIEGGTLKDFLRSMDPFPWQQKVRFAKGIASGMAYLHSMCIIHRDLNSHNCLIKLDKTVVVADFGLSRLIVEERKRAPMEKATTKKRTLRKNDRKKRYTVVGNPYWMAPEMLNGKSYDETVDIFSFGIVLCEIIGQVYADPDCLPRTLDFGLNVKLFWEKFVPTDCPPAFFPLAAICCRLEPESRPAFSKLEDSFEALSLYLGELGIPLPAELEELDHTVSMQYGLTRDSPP
Chain of TGF-beta receptor type-2 (Homo sapiens) (P37173 whole entry): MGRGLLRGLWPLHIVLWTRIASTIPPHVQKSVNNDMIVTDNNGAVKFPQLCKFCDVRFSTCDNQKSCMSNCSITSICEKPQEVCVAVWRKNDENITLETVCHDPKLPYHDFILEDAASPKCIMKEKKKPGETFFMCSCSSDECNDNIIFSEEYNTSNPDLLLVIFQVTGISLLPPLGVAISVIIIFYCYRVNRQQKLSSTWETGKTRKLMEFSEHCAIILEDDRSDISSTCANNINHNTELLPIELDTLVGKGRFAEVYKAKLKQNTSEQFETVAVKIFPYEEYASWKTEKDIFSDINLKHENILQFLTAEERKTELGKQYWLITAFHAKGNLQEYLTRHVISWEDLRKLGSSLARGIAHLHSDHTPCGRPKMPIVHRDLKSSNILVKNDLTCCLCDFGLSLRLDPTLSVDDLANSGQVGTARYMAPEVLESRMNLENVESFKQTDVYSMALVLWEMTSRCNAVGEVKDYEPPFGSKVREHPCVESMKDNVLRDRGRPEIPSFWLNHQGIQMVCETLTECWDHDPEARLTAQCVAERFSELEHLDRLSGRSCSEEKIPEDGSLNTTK
Chain of Protein kinase C delta type (Homo sapiens) (Q05655 whole entry, looked up): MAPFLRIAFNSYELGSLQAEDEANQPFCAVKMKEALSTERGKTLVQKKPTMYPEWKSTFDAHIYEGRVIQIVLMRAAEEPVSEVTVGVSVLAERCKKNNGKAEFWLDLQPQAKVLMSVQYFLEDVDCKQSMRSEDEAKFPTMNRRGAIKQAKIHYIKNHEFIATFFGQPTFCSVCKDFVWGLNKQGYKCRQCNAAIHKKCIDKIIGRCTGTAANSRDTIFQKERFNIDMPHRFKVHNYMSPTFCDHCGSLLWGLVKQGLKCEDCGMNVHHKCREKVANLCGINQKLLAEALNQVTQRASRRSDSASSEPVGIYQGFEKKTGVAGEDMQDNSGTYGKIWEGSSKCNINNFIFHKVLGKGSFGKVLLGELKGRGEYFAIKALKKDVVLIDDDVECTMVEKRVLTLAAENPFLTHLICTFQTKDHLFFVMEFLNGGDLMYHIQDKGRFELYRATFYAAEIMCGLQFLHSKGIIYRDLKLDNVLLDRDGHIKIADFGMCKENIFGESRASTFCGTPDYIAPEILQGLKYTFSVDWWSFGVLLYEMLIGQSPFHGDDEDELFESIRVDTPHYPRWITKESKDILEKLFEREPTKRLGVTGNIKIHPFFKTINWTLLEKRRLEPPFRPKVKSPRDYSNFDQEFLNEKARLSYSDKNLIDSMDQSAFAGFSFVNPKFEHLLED
Chain of Ribosomal protein S6 kinase alpha-3 (P51812 whole entry): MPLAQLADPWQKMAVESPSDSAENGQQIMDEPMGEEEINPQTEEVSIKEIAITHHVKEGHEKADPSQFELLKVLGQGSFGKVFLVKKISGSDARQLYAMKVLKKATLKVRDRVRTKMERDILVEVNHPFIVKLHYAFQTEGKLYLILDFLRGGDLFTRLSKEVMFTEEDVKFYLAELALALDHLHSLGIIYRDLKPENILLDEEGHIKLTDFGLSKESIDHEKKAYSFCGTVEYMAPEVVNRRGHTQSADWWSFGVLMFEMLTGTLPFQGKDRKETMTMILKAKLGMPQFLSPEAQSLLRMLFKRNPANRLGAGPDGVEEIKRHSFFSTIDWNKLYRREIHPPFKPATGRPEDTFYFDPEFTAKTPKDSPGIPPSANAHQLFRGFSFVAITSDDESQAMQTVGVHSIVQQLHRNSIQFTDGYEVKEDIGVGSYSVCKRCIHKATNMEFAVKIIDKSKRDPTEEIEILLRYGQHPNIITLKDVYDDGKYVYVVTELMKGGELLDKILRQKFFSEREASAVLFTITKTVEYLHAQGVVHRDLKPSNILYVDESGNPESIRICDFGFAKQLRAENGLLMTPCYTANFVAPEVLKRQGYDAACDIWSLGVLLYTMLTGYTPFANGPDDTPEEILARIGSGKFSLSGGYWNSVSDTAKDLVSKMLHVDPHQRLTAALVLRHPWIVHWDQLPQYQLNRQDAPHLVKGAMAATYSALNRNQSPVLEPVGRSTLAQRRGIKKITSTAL
Chain of Mu-type opioid receptor (P35372 whole entry, the tested form may be a part): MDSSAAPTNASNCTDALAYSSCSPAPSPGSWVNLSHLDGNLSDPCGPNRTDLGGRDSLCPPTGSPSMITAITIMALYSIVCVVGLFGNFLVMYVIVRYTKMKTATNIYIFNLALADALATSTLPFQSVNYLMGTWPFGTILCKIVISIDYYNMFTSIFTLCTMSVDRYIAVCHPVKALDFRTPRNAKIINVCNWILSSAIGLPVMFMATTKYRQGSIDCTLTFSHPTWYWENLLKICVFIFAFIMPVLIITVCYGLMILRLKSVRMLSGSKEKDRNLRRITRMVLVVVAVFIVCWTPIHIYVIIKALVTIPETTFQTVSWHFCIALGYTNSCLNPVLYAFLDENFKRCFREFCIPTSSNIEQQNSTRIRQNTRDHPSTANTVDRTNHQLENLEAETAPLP

% of control [1]: 97%
Structure (SMILES): CC(=O)Nc1cccc(-n2c(=O)n(C3CC3)c(=O)c3c(Nc4ccc(I)cc4F)n(C)c(=O)c(C)c32)c1

Structure (SMILES): COc1cc(Nc2nc(C)cc(-c3cnn4nc(OC)ccc34)n2)cc(C(F)(F)F)c1
% of control [2]: 100%

Structure (SMILES): CN(C)C/C=C/C(=O)Nc1ccc(C(=O)N2CCCC(Nc3ncc(Cl)c(-c4c[nH]c5ccccc45)n3)C2)cc1 (stereo not drawn)
% of control [3]: 63%

% of inhibition [4]: 14.5%
Structure (SMILES): CC[C@@H]1[C@H](F)C(=O)N[C@@H]1COc1nccc2cc(C(N)=O)c(OC)cc12 [ZIMLOVISERTIB]

Structure (SMILES): Cc1cc(C)cc([C@@H]2c3cc(C)ccc3NC(=O)CN2C(=O)c2ccc(Br)s2)c1
% of inhibition [5]: 4%

Structure (SMILES): CCC(=O)N1CCN(c2ccc(-n3c(=O)ccc4cnc5ccc(-c6cnc7ccccc7c6)cc5c43)cc2C(F)(F)F)CC1
% of control [6]: 4.8%

Structure (SMILES): N#Cc1cccc(-c2c[nH]c3ncnc(N4CCOCC4)c23)c1
% of inhibition [7]: 11%

Structure (SMILES): C=CC(=O)Nc1ccc(C(=O)Nc2[nH]nc3c2CN(C(=O)N[C@H](CN(C)C)c2ccccc2)C3(C)C)cc1
% of engagement [8]: -1.4%
